Test results published in ChEMBL document CHEMBL5608184, “Discovery and mechanistic insights into thieno[3,2-d]pyrimidine and heterocyclic fused pyrimidines inhibitors targeting tubulin for cancer therapy” (Eur J Med Chem, 2024).
pIC50: −log10 of the molar value. Calls of active or inactive are those of the source. The rule behind the calls is not given here.

How the values were obtained:
Sus scrofa = species: Sus scrofa; assay: Inhibition of porcine brain tubulin polymerization measured for 60 min by fluorescence based assay; conditions: dose 10.0 µM
SK-OV-3 [1] = assay: Inhibition of cell migration in human SK-OV-3 cells assessed as relative wound density at 1.25 nM incubated for 24 hrs by wound healing assay (reference value: 74.53 %); assay type: functional; parameters: scale not given: the % may be the effect or the level left
SK-OV-3 [2] = assay: Induction of cell cycle arrest at G2/M phase in human SK-OV-3 cells at 1.25 nM incubated for 24 hrs by PI staining based flow cytometry (reference value: 29.73 %); assay type: functional
SK-OV-3 [3] = assay: Induction of apoptosis in human SK-OV-3 cells assessed as early apoptotic cells at 1.25 nM incubated for 48 hrs by Annexin V-APC-A/7-AAD-A staining based flow cytometry (reference value: 1.12 %); assay type: functional
Tubulin (Homo sapiens) [4] = molecular target: T1, Tubulin (Homo sapiens) (UniProt P68371+Q9H4B7+P0DPH7+P68366+Q13509+Q71U36+P04350+Q3ZCM7+P07437+P68363+Q9BQE3+Q6PEY2+Q13885+Q9BVA1+Q9BUF5); assay: Inhibition of tubulin polymerization in human SK-OV-3 assessed as decrease in cell viability at 2 nM incubated for 24 hrs by immunofluorescence based analysis
SK-OV-3 [5] = assay: Antiproliferative activity against human SK-OV-3 cells incubated for 48 hrs by CCK8 assay; assay type: functional, cell-based; conditions: SK-OV-3, 48 h
SK-OV-3 [6] = assay: Inhibition of cell migration in human SK-OV-3 cells assessed as migration rate at 1.25 nM incubated for 24 hrs by wound healing assay relative to control; assay type: functional; parameters: scale not given: the % may be the effect or the level left
Tubulin (Homo sapiens) [7] = molecular target: T1, Tubulin (Homo sapiens); assay: Inhibition of tubulin polymerization in human SK-OV-3 assessed as disruption of microtubule cytoskeleton at 2 nM incubated for 24 hrs by immunofluorescence based analysis; assay type: cell-based
SK-OV-3 [8] = assay: Induction of apoptosis in human SK-OV-3 cells assessed as necrotic cells at 0.625 nM incubated for 48 hrs by Annexin V-APC-A/7-AAD-A staining based flow cytometry (reference value: 0.48 %); assay type: functional
SK-OV-3 [9] = assay: Induction of apoptosis in human SK-OV-3 cells assessed as decrease in Bcl-2 level incubated for 48 hrs by Western blot analysis; assay type: functional, cell-based; conditions: dose 0.625-5 nM
SK-OV-3 [10] = assay: Inhibition of cell migration in human SK-OV-3 cells assessed as migration rate at 0.625 nM incubated for 24 hrs by wound healing assay relative to control; assay type: functional; parameters: scale not given: the % may be the effect or the level left
SK-OV-3 [11] = assay: Induction of apoptosis in human SK-OV-3 cells assessed as necrotic cells at 5 nM incubated for 48 hrs by Annexin V-APC-A/7-AAD-A staining based flow cytometry (reference value: 0.48 %); assay type: functional
Tubulin (Homo sapiens) [12] = molecular target: T1, Tubulin (Homo sapiens); assay: Inhibition of tubulin polymerization in human SK-OV-3 assessed as condensation of microtubule at cell periphery at 2 nM incubated for 24 hrs by immunofluorescence based analysis
SK-OV-3 [13] = assay: Inhibition of cell migration in human SK-OV-3 cells assessed as migration rate at 5 nM incubated for 24 hrs by wound healing assay relative to control; assay type: functional; parameters: scale not given: the % may be the effect or the level left
A549 = assay: cells; conditions: Homo sapiens, A549, 48 h
Description: Antiproliferative activity against human A549 cells incubated for 48 hrs by CCK8 assay

Tubulin (Homo sapiens) [14] = molecular target: T1, Tubulin (Homo sapiens); assay: Inhibition of tubulin polymerization in human SK-OV-3 assessed as severe cell contraction at 2 nM incubated for 24 hrs by immunofluorescence based analysis
SK-OV-3 [15] = assay: Inhibition of cell migration in human SK-OV-3 cells assessed as migration rate at 2.5 nM incubated for 24 hrs by wound healing assay relative to control; assay type: functional; parameters: scale not given: the % may be the effect or the level left
SK-OV-3 [16] = assay: Induction of apoptosis in human SK-OV-3 cells assessed as increase in cleaved caspase-9 level incubated for 48 hrs by Western blot analysis; assay type: functional, cell-based; conditions: dose 0.625-5 nM
SK-OV-3 [17] = assay: Induction of cell cycle arrest at G2/M phase in human SK-OV-3 cells assessed as increase in Cyclin B level incubated for 24 hrs by Western blot analysis; assay type: functional, cell-based; conditions: dose 0.625-5 nM
A2780 = assay: Antiproliferative activity against human A2780 cells incubated for 48 hrs by CCK8 assay; assay type: functional, cell-based; conditions: A2780, 48 h
SK-OV-3 [18] = assay: Induction of cell cycle arrest at G2/M phase in human SK-OV-3 cells assessed as decrease in Cdc-25c level incubated for 24 hrs by Western blot analysis; assay type: functional, cell-based; conditions: dose 0.625-5 nM
[19] = Antiproliferative activity against Paclitaxel-resistant human A2780 cells incubated for 48 hrs by CCK8 assay; assay type: functional, cell-based; conditions: Paclitaxel-resistant A2780, 48 h
SK-OV-3 [20] = assay: Inhibition of cell migration in human SK-OV-3 cells assessed as relative wound density at 5 nM incubated for 24 hrs by wound healing assay (reference value: 74.53 %); assay type: functional; parameters: scale not given: the % may be the effect or the level left
SK-OV-3 [21] = assay: Induction of apoptosis in human SK-OV-3 cells assessed as late apoptotic cells at 0.625 nM incubated for 48 hrs by Annexin V-APC-A/7-AAD-A staining based flow cytometry (reference value: 1.22 %); assay type: functional
SK-OV-3 [22] = assay: Induction of apoptosis in human SK-OV-3 cells assessed as increase in cleaved caspase-3 level incubated for 48 hrs by Western blot analysis; assay type: functional, cell-based; conditions: dose 0.625-5 nM
SK-OV-3 [23] = assay: Induction of apoptosis in human SK-OV-3 cells assessed as viable cells at 2.5 nM incubated for 48 hrs by Annexin V-APC-A/7-AAD-A staining based flow cytometry (reference value: 97.17 %); assay type: functional; conditions: read-out: Activity
HCC827 = assay: Antiproliferative activity against human HCC827 cells incubated for 48 hrs by CCK8 assay; assay type: functional, cell-based; conditions: HCC827, 48 h
SK-OV-3 [24] = assay: Inhibition of cell migration in human SK-OV-3 cells assessed as relative wound density at 2.5 nM incubated for 24 hrs by wound healing assay (reference value: 74.53 %); assay type: functional; parameters: scale not given: the % may be the effect or the level left
SK-OV-3 [25] = assay: Inhibition of colony formation in human SK-OV-3 cells incubated for 3 days by crystal violet staining based analysis; assay type: functional, cell-based; conditions: dose 0.625-5 nM, time 3.0 day
SK-OV-3 [26] = assay: Induction of apoptosis in human SK-OV-3 cells assessed as viable cells at 5 nM incubated for 48 hrs by Annexin V-APC-A/7-AAD-A staining based flow cytometry (reference value: 97.17 %); assay type: functional; conditions: read-out: Activity
SK-OV-3 [27] = assay: Induction of apoptosis in human SK-OV-3 cells assessed as increase in cleaved PARP level incubated for 48 hrs by Western blot analysis; assay type: functional, cell-based; conditions: dose 0.625-5 nM
SK-OV-3 [28] = assay: Induction of apoptosis in human SK-OV-3 cells assessed as late apoptotic cells at 1.25 nM incubated for 48 hrs by Annexin V-APC-A/7-AAD-A staining based flow cytometry (reference value: 1.20 %); assay type: functional
SK-OV-3 [29] = assay: Induction of apoptosis in human SK-OV-3 cells assessed as early apoptotic cells at 1.25 nM incubated for 48 hrs by Annexin V-APC-A/7-AAD-A staining based flow cytometry (reference value: 1.10 %); assay type: functional
SK-OV-3 [30] = assay: Inhibition of cell migration in human SK-OV-3 cells assessed as relative wound density at 2.5 nM incubated for 24 hrs by wound healing assay (reference value: 61.61 %); assay type: functional; parameters: scale not given: the % may be the effect or the level left
SK-OV-3 [31] = assay: Induction of cell cycle arrest at G2/M phase in human SK-OV-3 cells at 5 nM incubated for 24 hrs by PI staining based flow cytometry (reference value: 30.13 %); assay type: functional
SK-OV-3 [32] = assay: Induction of apoptosis in human SK-OV-3 cells assessed as late apoptotic cells at 5 nM incubated for 48 hrs by Annexin V-APC-A/7-AAD-A staining based flow cytometry (reference value: 1.20 %); assay type: functional

pIC50 (SK-OV-3 [5])	inhibition (Tubulin (Homo sapiens) [7])	inhibition (Tubulin (Homo sapiens) [12])	pIC50 (A549)	inhibition (Tubulin (Homo sapiens) [14])	pIC50 (A2780)	pIC50 (HCC827)	SMILES	inhibition (Sus scrofa)	inhibition (Tubulin (Homo sapiens) [4])	Activity (SK-OV-3 [6]) [%]	Activity (SK-OV-3 [9])	Activity (SK-OV-3 [10]) [%]	Activity (SK-OV-3 [13]) [%]	Activity (SK-OV-3 [15]) [%]	Activity (SK-OV-3 [16])	Activity (SK-OV-3 [17])	Activity (SK-OV-3 [18])	pIC50 [19]	Activity (SK-OV-3 [22])	inhibition (SK-OV-3 [25])	other results
9.51	Active	Active	9.08	Active	9.42	9.47	COc1ccc2c(c1)NC(=O)CN2c1nc(Cl)nc2ccsc12	Dose-Dependent Effect	Active	70.73	Dose-Dependent Effect	84.28	23.64	50.2	Dose-Dependent Effect	Active	Active	9.12	Dose-Dependent Effect	Dose-Dependent Effect	Activity (SK-OV-3 [1]): 33.15%; Activity (SK-OV-3 [2]): 85.13%; Activity (SK-OV-3 [3]): 38.42%; Activity (SK-OV-3 [8]): 0.91%; Activity (SK-OV-3 [11]): 2.06%; Activity (SK-OV-3 [20]): 7.98%; Activity (SK-OV-3 [21]): 2.48%; viability at 0.0025 µM (SK-OV-3 [23]): 53.9%; Activity (SK-OV-3 [24]): 9.35%; viability at 0.005 µM (SK-OV-3 [26]): 62.1%; Activity (SK-OV-3 [27]): Dose-Dependent Effect
8.88	Active	Active	8.75	Active	8.81	8.76	COc1ccc(N(C)c2nc(Cl)nc3ccn(C)c23)cc1	Dose-Dependent Effect	Active	94.75	Dose-Dependent Effect	102.55	56.82	81.73	Dose-Dependent Effect	Active	Active	8.65	Dose-Dependent Effect	Dose-Dependent Effect	Activity (SK-OV-3 [28]): 2.48%; Activity (SK-OV-3 [29]): 2.83%; Activity (SK-OV-3 [30]): 6.33%; Activity (SK-OV-3 [31]): 87.47%; Activity (SK-OV-3 [32]): 3.86%; Activity (SK-OV-3 [27]): Dose-Dependent Effect
